Reference: patent publication US20260048051A1, “TREATMENT OF INFLAMMATORY BOWEL DISEASE” (Atomwise Inc., priority 2024, published 2026)

Experiments:
[1] = Mouse plasma pharmacokinetics, PO 5 mg/kg; assay type: in vivo
Description: The following example describes the methods used to evaluate the pharmacokinetics of TYK2 inhibitors in vivo following dosing of a compound of the invention.
The pharmacokinetics of test compounds were evaluated in either male CD-1 mice or male C57BL/6 mice when administered by oral gavage and IV bolus injection. The animals were allowed free access to food and water before administration. The plasma samples were analyzed by LC-MS/MS and the concentration of test compound at each time point was determined by linear regression. Pharmacokinetic parameters were calculated from the plasma concentrations by non-compartmental modeling using WinNonlin 8.2.
Oral composition. To prepare a pharmaceutical composition for oral delivery, the test articles described herein were dissolved in DMSO and then mixed with necessary volume of PEG400 followed by […] in water or 50% Kolliphor HS 15 in saline to provide the final concentrations of 0.5 mg/mL or 1 mg/mL (Table 8). The resultant mixtures were suitable for oral administration.
The PK parameters measured in mouse plasma after treatment with TYK2 inhibitor compounds via PO (oral administration) at 5 mg/kg are summarized below in Tables 9-11.

TYK2-JH2 = molecular target: T1, TYK2-JH2 (Homo sapiens, UniProt P29597); assay: TYK2-JH2 HTRF binding assay (ligand efficiency); conditions: calculated from binding-assay IC50 (Equation 1)
T1 construct: TYK JH2 enzyme mix (ChemPartner: CP20210818A-BV); purchased ChemPartner CP20210818A-BV
Summary of the method: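 HTRF competition binding: 0.5 nM His-tagged TYK2 JH2 preincubated 10 min at room temperature with compound (final 0.1 to 0.000005 μM), then 35 nM tracer and anti-6HIS Tb cryptate added for 60 min. Buffer 20 mM HEPES pH 7.5, 10 mM MgCl2, 0.01% Triton X-100, 1 mM DTT; TR-FRET Ex340/Em495/520. Ligand efficiency derived from binding IC50.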

GM-CSF induced pSTAT5 = GM-CSF induced pSTAT5 assay in CellSensor irf1-bla TF-1 cells; assay type: cell-based; conditions: GM-CSF 1 ng/mL; for IC50: Homo sapiens, read-out: Cellular selectivity (GM-CSF induced pSTAT5)
Description: The CellSensor irfl-bla TF-1 cell line (LifeTechnologies, K1657) was cultured in RPMI 1640 Medium (Invitrogen 72400-047), 10% Fetal Bovine Serum (Invitrogen, 26400044), 1 mM Sodium pyruvate (Life Technologies, 11360039), 1% MEM NEAA (Life Technologies, 11140-035), 2 ng/ml of human recombinant GM-CSF (Fisher, PHC2015), 1% Penicillin/Streptomycin (Life Technologies, 15140-122) and 5 µg/ml of Blasticidin (ThermoFisher, A1113903).
The cell line was seeded in a T75 flask at 13×10^6 cells/50 mL in starvation medium (Opti-MEM™ I Reduced Serum Medium, no phenol red (Life Technologies, 11058-021), 1 mM Na pyruvate (Life Technologies, 11360039), 1% MEM NEAA (Life Technologies, 11140-035), and 1% Penicillin/Streptomycin (Life Technologies, 15140-122)) for 16 hours at 37° C. under 5% CO2 the day before the assay.
For the assay, CellSensor irfl-bla TF-1 cells were seeded at 30 000 cells/32 μL (starvation medium)/well in a 384-well plate.
Compounds were added on the cells in 4 μL (starvation medium)/well at 10× the final concentration. They were incubated for 30 minutes at 37° C.
Human recombinant carrier-free GM-CSF (ThermoFisher, ref PHC2015) was added to the wells in 4 μL (starvation medium)/well at 10×. The final concentration was 1 ng/mL. Control wells without GM-CSF treatment were added. Plates were incubated for 5 hours at 37° C.
6× LiveBlazer-FRET substrate (Invitrogen, K1085) was added to the wells at 8 μL/well. The substrate was prepared shortly before use by mixing 6 μL of solution A and 60 μL of solution B to 934 μL of solution C. Plates were incubated for 2.5 hours at room temperature in the dark. The plates were read on an Envision (Perkin Elmer) with an excitation at a wavelength of 409 nm and two wavelengths for the emission 520 nm and 450 nm. The ratio between the […] emission was used to calculate the IC50s.
The IC50 for the inhibition of pSTAT5 was calculated with the XLfit software using the 4 Parameter Logistic Model or Sigmoidal Dose-Response Model (model 205).

IL-6 induced pSTAT3 = IL-6 induced pSTAT3 assay in TF-1 cells; assay type: cell-based; conditions: Homo sapiens, read-out: Cellular selectivity (IL-6/pSTAT3)
Description: The following example describes the IL-6 induced pSTAT3 assay used to determine the cellular selectivity (IL-6/pSTAT3) of the TYK2 inhibitors.
TF-1 (ATCC®, CRL-2003™) cells were cultured in RPMI 1640 Medium, with GlutaMAX™ Supplement, HEPES for Cell Culture (Life Technologies, 72400047), 10% Fetal Bovine Serum (Life Technologies, 26400044), 2 ng/mL human recombinant GM-CSF (Life Technologies, PHC2013), 1 mM Sodium pyruvate (Life Technologies, 11360039), 1% MEM NEAA (Life Technologies, 11140-035), 1% Penicillin/Streptomycin (Life Technologies, 15140-122).
TF-1 (70×10^6) cells were starved overnight in T150 flasks (Opti-MEM™ I Reduced Serum Medium, no phenol red (Life Technologies, 11058-021), 1 mM Na pyruvate (Life Technologies, 11360039), 1% MEM NEAA (Life Technologies, 11140-035), and 1% Penicillin/Streptomycin (Life Technologies, 15140-122)) then seeded into 96-well TPP plates (150 000 cell/well) and incubated with test compounds (Final Concentration [nM]10000-0.05) for 30 minutes at 37° C. […] Stimulation was terminated by addition of lysis buffer (MSD K150SVD) and pSTAT3 detection was measured with Phospho-STAT3 (Tyr705) Kit MSD K150SVD)) according to manufacturer's instruction. Briefly, cell lysates were added to pre-blocked plates, sealed, and shake for 1 hour at room temperature. Plates were then washed and incubated with detection antibody for 1 hour at room temperature. After washing, Read Buffer was added, and plates were read on MSD instrument (Model 1300 MSD Quickplex SQ120).

[2] = Brain exposure pharmacokinetics in rats; assay type: in vivo; conditions: male Sprague Dawley rats, oral gavage 10 mg/kg
Description: The brain exposure of exemplary compounds, e.g., 1, 2, and 4 were evaluated in male Sprague Dawley rats after oral gavage administration at 10 mg/kg. The formulation was 5% DMSO+10% PEG400 in saline. Rats were fasted overnight with food returned 4 hours post-dose. CSF was collected by direct needle puncture into the cisterna magna.
(§1) For both rat and mouse studies, brain tissue was washed with 3 volumes of saline prior to homogenization. Brain tissue was homogenized with 3 volumes (v/w) of phosphate buffered saline. Plasma, brain homogenate, and CSF samples (rat only) were analyzed by LC-MS/MS and the concentration of test compound at each time point was determined by linear regression.
(§2) Pharmacokinetic parameters were calculated from the plasma, brain, and CSF concentrations by non-compartmental modeling using WinNonlin 8.2.

[3] = Brain exposure pharmacokinetics in mice; assay type: in vivo; conditions: male C57BL/6 mice, oral gavage 5 mg/kg
Description: The brain exposure of 18 was evaluated in male C57BL/6 mice after oral gavage administration at 5 mg/kg. The formulation was 10% DMSO+40% PEG400 in saline. Mice were provided free access to food and water without fasting. Terminal sample collection of plasma and brain tissue were collected at […], 0.25, 0.5, 1, 2, and 4 hours post-dose with n=3 at each timepoint.
as §1, §2

T1 sequence (P29597 589-875 limits assumed): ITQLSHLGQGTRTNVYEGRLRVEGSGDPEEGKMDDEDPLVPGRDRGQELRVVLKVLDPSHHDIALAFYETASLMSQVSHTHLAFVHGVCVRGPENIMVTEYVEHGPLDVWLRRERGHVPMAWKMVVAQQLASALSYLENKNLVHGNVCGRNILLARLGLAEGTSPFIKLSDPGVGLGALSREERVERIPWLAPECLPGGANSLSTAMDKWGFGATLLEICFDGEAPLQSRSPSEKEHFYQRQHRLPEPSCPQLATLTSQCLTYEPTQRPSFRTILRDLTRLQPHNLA

CS(=O)(=O)c1cccnc1Nc1cc(Nc2ccc3c(n2)CCCC3N2CC3(COC3)C2)ncn1 (stereo in doubt) [Compound 5, (R)—N^4-(5-(2-oxa-6-azaspiro[3.3]heptan-6-yl)-5,6,7,8-tetrahydroquinolin-2-yl)-N^6-(3-(methylsulfonyl)pyridin-2-yl)pyrimidine-4,6-diamine]
Half-life (t1/2) [1]: ††† (†††: >1.5)
Maximum plasma concentration (Cmax) [1]: ††† (†††: >1500)
Total systemic exposure (AUCinf) [1]: ††† (†††: >2000)
Ligand Efficiency (TYK2-JH2): †† (††: 0.37-0.39)
IC50 (GM-CSF induced pSTAT5): > 10 µM
IC50 (IL-6 induced pSTAT3): 4 to 10 µM

CC(c1ccc(Nc2cc(Nc3ncccc3S(C)(=O)=O)ncn2)nc1C(F)(F)F)N1CC2(COC2)C1 (stereo in doubt) [Compound 11, (R)—N^4-(5-(1-(2-oxa-6-azaspiro[3.3]heptan-6-yl)ethyl)-6-(trifluoromethyl)pyridin-2-yl)-N^6-(3-(methylsulfonyl)pyridin-2-yl)pyrimidine-4,6-diamine]
Half-life (t1/2) [1]: ††† (†††: >1.5)
Maximum plasma concentration (Cmax) [1]: †† (††: 800-1500)
Total systemic exposure (AUCinf) [1]: ††† (†††: >2000)
Ligand Efficiency (TYK2-JH2): †† (††: 0.37-0.39)
IC50 (GM-CSF induced pSTAT5): > 10 µM
IC50 (IL-6 induced pSTAT3): < 4 µM

Cc1nc(Nc2cc(Nc3ncccc3S(C)(=O)=O)ncn2)ccc1[C@H](C)N1CC2(COC2)C1 (stereo in doubt) [Compound 12, N^4-(5-(1-(2-oxa-6-azaspiro[3.3]heptan-6-yl)ethyl)-6-methylpyridin-2-yl)-N^6-(3-(methylsulfonyl)pyridin-2-yl)pyrimidine-4,6-diamine]
Half-life (t1/2) [1]: † (†: <1.0)
Maximum plasma concentration (Cmax) [1]: ††† (†††: >1500)
Total systemic exposure (AUCinf) [1]: †† (††: 1000-2000)
Ligand Efficiency (TYK2-JH2): ††† (†††: >0.39)
IC50 (GM-CSF induced pSTAT5): < 4 µM
IC50 (IL-6 induced pSTAT3): < 4 µM

C[C@@H](c1ccc(Nc2cc(Nc3ncccc3S(C)(=O)=O)ncn2)nc1)N(C)C [Compound 4, (S)—N^4-(5-(1-(dimethylamino)ethyl)pyridin-2-yl)-N^6-(3-(methylsulfonyl)pyridin-2-yl) pyrimidine-4,6-diamine]
Ligand Efficiency (TYK2-JH2): ††† (†††: >0.39)
Brain Kpu, u [2]: ††† (††† >0.2 u)

C[C@H](c1ccc(Nc2cc(Nc3ncccc3S(C)(=O)=O)ncn2)nc1)N1CC2(COC2)C1 [Compound 17, (R)—N^4-(5-(1-(2-oxa-6-azaspiro[3.3]heptan-6-yl)ethyl)pyridin-2-yl)-N^6-(3-(methylsulfonyl)pyridin-2-yl)pyrimidine-4,6-diamine]
Ligand Efficiency (TYK2-JH2): †† (††: 0.37-0.39)
Cellular selectivity (GM-CSF induced pSTAT5) (GM-CSF induced pSTAT5): ††††
IC50 (IL-6 induced pSTAT3): > 10 µM

Cc1cccc(Nc2cc(Nc3ncccc3S(C)(=O)=O)ncn2)n1 [Compound 18, N^4-(6-methylpyridin-2-yl)-N^6-(3-(methylsulfonyl)pyridin-2-yl) pyrimidine-4,6-diamine]
Brain Kpu, u [3]: ††† (††† >0.2 u)
Ligand Efficiency (TYK2-JH2): ††† (†††: >0.39)
